These results are taken from PMC8219408, “Switching Cytolytic Nanopores into Antimicrobial Fractal Ruptures by a Single Side Chain Mutation” (ACS nano, 2021).

Structures are written as SMILES. In brackets after ≈: the same amount, converted by molar mass. Peptide text beside a SMILES is read from it.

In one data set the test system is Human erythrocytes. Nature of the data set: Hemolysis assay. It is filed as cell-based. The settings on record: 250 µM, pH 7.2. On the procedure: For hemolysis measurements 10% (vol/vol) suspensions of human erythrocytes with peptides were used. Phosphate buffer saline (PBS, 10 mM, pH 7.2) was used to rinse human red blood cells (4x) using repeated centrifugation and re-suspension (3 min, 3000 × g). The cells were incubated for 1 h at room temperature in deionized water (fully hemolysed control), with peptide in PBS or just PBS, which was followed by centrifugation (5 min, 10000 × g). The obtained supernatant was then separated from the pellet, and absorbance (550 nm) was measured in a SpectraMax i3x multi-mode microplate reader (Molecular Devices). Absorbance obtained for the suspension that was treated with deionized water gave complete (100%) hemolysis. Table S1 summarises the results, with the values corresponding to % hemolysis for peptide at 250 μM. All tests were performed in triplicate.

Another data set has as its system M. luteus (ATCC 49732). It is filed as cell-based. The settings on record: ATCC 49732, 24 h. Here is the method:
(§1) MIC values were obtained using broth microdilution against different bacteria following the protocols by Clinical and Laboratory Standards Institute. Specifically, each bacterium (100 μL of 0.5–1 × 10^6 CFU per ml) in Mueller Hinton media broth (Oxoid) was incubated in 96-well microtiter plates at 37 °C on a 3D orbital shaker. 100 μL of serial twofold peptide dilutions (from 100 to 0 μM) were used. Following peptide addition, absorbance (600 nm) was measured in a SpectraMax i3x multi-mode microplate reader (Molecular Devices). The lowest peptide concentrations inhibiting visible bacterial growth after 24 h at 37 °C was defined as MICs. All tests were performed in triplicate.

Another data set concerns S. typhimurium (6192). It is filed as cell-based. The settings on record: 6192, 24 h. On the procedure: as §1
Data set [1] relates to K. pneumoniae (NCTC 5055). It is filed as cell-based. The settings on record: NCTC 5055, 24 h. On the procedure: as §1
The subject of data set [2] is P. aeruginosa (ATCC 27853). It is filed as cell-based. The settings on record: ATCC 27853, 24 h. On the procedure:
as §1

The subject of another data set is B. subtilis (ATCC 6633). It is filed as cell-based. The settings on record: ATCC 6633, 24 h. On the procedure: as §1
A further data set deals with S. aureus (ATCC 6538). It is filed as cell-based. The conditions noted are these: ATCC 6538, 24 h. Here is the method: as §1
A further data set has as its system E. coli (ATCC 15597). It is filed as cell-based. The settings on record: ATCC 15597, 24 h. On the procedure:
as §1

Data set [3] deals with DLPC/DLPG (3:1 molar ratio) unilamellar vesicles. Kind of data set: Isothermal titration calorimetry, anionic vesicles. The settings on record: ITC, peptide (500 μM) titrated into DLPC/DLPG (3:1) vesicles (380 μM total lipid), 25 °C, one-set binding model, duplicate; read-out: dissociation constant (KD). Here is the method:
The lipids used for the assembly of unilamellar vesicles were from Avanti Polar Lipids: 1,2-dilauroylphosphatidylcholine (DLPC) was used for zwitterionic vesicles, while its mixture with 1,2-dilauroyl-sn-glycero-3-phospho-(1’-rac-glycerol) (DLPG) at a 3:1 molar ratio was used for anionic vesicles. After weighting up the lipid aliquots were dissolved in chloroform and dried under a nitrogen stream until a thin film was formed. The obtained film was subjected to hydration in 10 mM phosphate buffer (pH 7.4), which was followed by vortexing (1x, 2 min) and sonication (1x, 30 min). A hand-held extruder (Avanti Polar lipids) was used to extrude the resulting suspension (29x, polycarbonate filter, 0.05 μm) until a clear solution containing small unilamellar vesicles (SUV) was obtained. The SUVs were then analysed (50 nm) using a Zetasizer Nano (ZEN3600, Malvern Instruments, UK) and re-suspended to a final concentration of 1 mg/mL. The measurements were performed using a low volume disposable cuvette at 25°C. […]
A Microcal isothermal titration calorimeter-200 (ITC-200) was used to carry out all ITC experiments. […] Binding isotherms were recorded for peptides (500 μM) titrated into unilamellar phospholipid vesicles (380 μM, total lipid) in the cell. […]
On the technique in general: ITC needs no label: the signal is the heat of the interaction.

What is called Kd is the free concentration of one partner at which half of the binding sites on the other are occupied at equilibrium, for simple one-to-one binding. Regarding `CC(C)C[C@H](NC(=O)[C@H](CCCNC(=N)N)NC(=O)[C@H](CC(C)C)NC(=O)[C@H](CCCCN)NC(=O)[C@H](CC(C)C)NC(=O)[C@H](CCCNC(=N)N)NC(=O)[C@H](CC(C)C)NC(=O)[C@H](CC(C)C)NC(=O)[C@@H](N)CCCNC(=N)N)C(N)=O` [bienK9] (H-RLLRLKLRL-NH2; N-terminus assumed), the “% hemolysis, at 250 μM” value in the data set with Human erythrocytes turned out to be 0%. For the same compound, the Minimum inhibitory concentration with M. luteus (ATCC 49732) was 1.5 µM (≈ 1.77 µg/mL); in the data set with S. typhimurium (6192), 50 µM (≈ 59 µg/mL); in data set [1] it was greater than 50 µM; in data set [2], 6 µM (≈ 7.08 µg/mL); with B. subtilis (ATCC 6633) it was 3 µM (≈ 3.54 µg/mL); with S. aureus (ATCC 6538), 12 µM (≈ 14.2 µg/mL). In the data set on E. coli (ATCC 15597), this compound returned a Minimum inhibitory concentration of 3 µM (≈ 3.54 µg/mL). Also, the Kd in data set [3] was 2120 nM.
